Assay results as given in publication PMC5958115, “A novel small molecule chaperone of rod opsin and its potential therapy for retinal degeneration” (Nature Communications, 2018).

Key:
[1] = Quantification of YC-001 in mouse eye by HPLC; format: in vivo, C57BL/6 mouse
Procedure: To measure the amount of YC-001 in the eye following systemic delivery, YC-001 was administered to C57BL/6 mice by i.p. injection at a dose of 200 mg kg^−1 bw. Mice then were euthanized at 30 min, 3 h and 24 h after these injections, and their eyes were removed for analysis. Eyes from two mice under the same treatment were homogenized on ice in 1 mL of PBS:methanol (1:1 ratio). Four-mL of hexanes were then added to the homogenized sample, and the mixture was vortexed for 15 s. The mixture was centrifuged at 3,220×g for 15 min at 4 °C to separate the hexanes from the aqueous layer. From the top hexane layer, 3.5 mL was transferred to a glass vial. This sample was then dried in a Savant speed vacuum concentrator (Thermofisher, Waltham, Massachusetts, USA) and dissolved in 300 µL methanol. One hundred-µL of dissolved sample were injected into an HPLC system connected to an Agilent Sil column (5 μm, 4.6 × 250 mm; Agilent Technologies, Santa Clara, CA) for separation with 10% ethyl acetate in hexanes at a flow rate 1.4 mL min^−1. A chromatogram of absorption at 340 nm was then obtained. A YC-001 standard was subjected to the same procedures as the ocular samples and used to establish a retention time at 13.2 min. By comparing ocular samples to its standard curve of YC-001, the amount of YC-001 was then quantified in pmol per eye at different time points after its systemic administration. The identity of YC-001 in the peak fraction with a retention time of […] was confirmed by LC–MS using the same chromatography method as applied for HPLC.

human rod opsin C110Y = molecular target: T1, human rod opsin C110Y (Homo sapiens, UniProt P08100, C110Y); assay: Cell-surface immunostain of rod opsin mutant in transfected NIH3T3 cells; format: cell-based; details: 10 µM, 24 h
T1 construct: expressed in transfected cells; host or cells: NIH3T3 cells, transient transfection with pcDNA3.1-hOpsin mutant
Procedure: (§1) Human rhodopsin cDNA was placed into the pcDNA3.1(+) vector (pcDNA3.1-hOpsin). Site-directed mutagenesis was performed following the QuickChange II site-directed mutagenesis kit (Agilent Technologies Inc.). Primers for the following mutations were as follows: T4R-forward, 5′-[…]-3′; T4R-reverse, 5′-[…]-3′; P53R-forward, 5′-[…]-3′; P53R-reverse, 5′-[…]-3′; G106R-forward, 5′-[…]-3′; G106R-reverse, 5′-[…]-3′; C110Y-forward, 5′-[…]-3′; C110Y-reverse, 5′-[…]-3′; D190N-forward, 5′-[…]-3′; D190N-reverse, 5′-[…]-3′; P267L-forward, 5′-[…]-3′; P267L-reverse, 5′-[…]-3′. DNA vectors with rhodopsin mutations were confirmed by Sanger sequencing. After NIH3T3 cells were transfected with pcDNA3.1-hOpsin or its mutants for 24 h, these cells were resuspended and seeded into a 96-well plate with an optic bottom (Corning). […] Each condition was repeated in three wells. The treated plate was covered in tin foil and incubated at 37 °C with 5% CO2 for 24 h. Cells were then immunostained with 50 µg mL^−1 Alexa488-conjugated B6-30 anti-rhodopsin antibody. Cells were not exposed to detergents so that cell membranes were kept intact and only rhodopsin on the cell surface was immunostained. Alexa 488 fluorescence was imaged by the ImageExpress (Molecular Devices) high-content imager with a ×20 objective.

human rod opsin D190N = molecular target: T2, human rod opsin D190N (Homo sapiens, UniProt P08100, D190N); assay: as above; format: cell-based; details: 10 µM, 24 h
T2 construct: expressed in transfected cells; host or cells: NIH3T3 cells, transient transfection with pcDNA3.1-hOpsin mutant
Procedure: as §1

human rod opsin G106R = molecular target: T3, human rod opsin G106R (Homo sapiens, UniProt P08100, G106R); assay: as above; format: cell-based; details: 10 µM, 24 h
T3 construct: expressed in transfected cells; host or cells: NIH3T3 cells, transient transfection with pcDNA3.1-hOpsin mutant
Procedure: as §1

human rod opsin P267L = molecular target: T4, human rod opsin P267L (Homo sapiens, UniProt P08100, P267L); assay: as above; format: cell-based; details: 10 µM, 24 h
T4 construct: expressed in transfected cells; host or cells: NIH3T3 cells, transient transfection with pcDNA3.1-hOpsin mutant
Procedure: as §1

human rod opsin P53R = molecular target: T5, human rod opsin P53R (Homo sapiens, UniProt P08100, P53R); assay: as above; format: cell-based; details: 10 µM, 24 h
T5 construct: expressed in transfected cells; host or cells: NIH3T3 cells, transient transfection with pcDNA3.1-hOpsin mutant
Procedure: as §1

O=C1OCC(c2ccc(Cl)s2)=C1c1cccs1 [YC-001]
amount of YC-001 in eye ([1]; 0.5 h after i.p. 200 mg kg^−1 bw): About 70 pmol per eye | amount of YC-001 in eye ([1]; 3 h after i.p. 200 mg kg^−1 bw): 280 pmol per eye | amount of YC-001 in eye ([1]; 24 h after i.p. 200 mg kg^−1 bw): undetectable | cell-surface staining of C110Y rod opsin (human rod opsin C110Y): not P53R or C110Y mutants increased significantly | cell-surface staining of D190N rod opsin (human rod opsin D190N): increased significantly | cell-surface staining of G106R rod opsin (human rod opsin G106R): increased significantly | cell-surface staining of P267L rod opsin (human rod opsin P267L): increased significantly | cell-surface staining of P53R rod opsin (human rod opsin P53R): not P53R or C110Y mutants increased significantly
